Seven substances from the OligoGym collection can be followed below.

HELM strings list units from the 5' end as sugar, base in round brackets, then linkage (d deoxyribose, r ribose, m 2'-O-methyl, p phosphodiester). Strings are as the collection lists them, not checked against the first reports. ss, as = sense and antisense strand; [s4r] = 4'-thioribose; [fl2r] = 2'-fluoro
Note: test system not given here.

For this data set the following is noted: siRNA.
In turn, “RNA1{[s4r](A)p.[s4r](A)p.[s4r](A)p.[s4r](C)p.[s4r](A)p.[s4r](U)p.r(G)p.r(C)p.r(A)p.r(G)p.r(A)p.r(A)p.r(A)p.[s4r](A)p.[s4r](U)p.[s4r](G)p.[s4r](C)p.[s4r](U)p.[s4r](G)p.r(T)p.r(T)}|RNA2{r(C)p.r(A)p.r(G)p.r(C)p.r(A)p.r(U)p.r(U)p.r(U)p.r(U)p.r(C)p.r(U)p.r(G)p.r(C)p.r(A)p.r(U)p.[s4r](G)p.[s4r](U)p.[s4r](U)p.[s4r](U)p.r(T)p.r(T)}$$$RNA1{StrandType:ss}|RNA2{StrandType:as}$” showed a target mRNA knockdown of 84.4%.

Regarding “RNA1{r(A)p.r(G)p.r(G)p.r(A)p.r(C)p.r(G)p.r(G)p.m(U)p.r(A)p.r(C)p.r(U)p.r(U)p.m(U)p.r(C)p.r(G)p.m(A)p.r(A)p.r(A)p.r(G)p.r(T)p.r(T)}|RNA2{r(C)p.r(U)p.r(U)p.r(U)p.r(C)p.r(G)p.r(A)p.r(A)p.r(A)p.r(G)p.m(U)p.r(A)p.r(C)p.r(C)p.r(G)p.r(U)p.r(C)p.r(C)p.r(U)p.r(T)p.r(T)}$$$RNA1{StrandType:ss}|RNA2{StrandType:as}$”, the target mRNA knockdown is 44%.

Regarding “RNA1{r(A)p.m(U)p.r(A)p.r(C)p.r(U)p.r(U)p.r(G)p.r(G)p.r(C)p.r(G)p.r(G)p.r(G)p.r(C)p.r(U)p.r(C)p.r(U)p.r(U)p.r(U)p.r(C)p.r(T)p.r(T)}|RNA2{r(G)p.r(A)p.r(A)p.r(A)p.r(G)p.r(A)p.r(G)p.r(C)p.r(C)p.r(C)p.r(G)p.r(C)p.r(C)p.r(A)p.r(A)p.r(G)p.r(U)p.r(A)p.r(U)p.r(T)p.r(T)}$$$RNA1{StrandType:ss}|RNA2{StrandType:as}$”, the target mRNA knockdown is 48%.

Turning to “RNA1{m(U)p.r(U)p.m(G)p.r(G)p.m(G)p.r(G)p.m(A)p.r(A)p.m(G)p.r(C)p.m(G)p.r(G)p.m(C)p.r(C)p.m(G)p.r(G)p.m(C)p.r(G)p.m(G)p.r(T)p.r(T)}|RNA2{r(C)p.r(C)p.r(G)p.r(C)p.r(C)p.r(G)p.r(G)p.r(C)p.r(C)p.r(G)p.r(C)p.r(U)p.r(U)p.r(C)p.r(C)p.r(C)p.r(C)p.m(A)p.m(A)p.r(T)p.r(T)}$$$RNA1{StrandType:ss}|RNA2{StrandType:as}$”, the target mRNA knockdown was 36%.

“RNA1{r(A)p.r(C)p.r(C)p.r(U)p.m(U)p.r(A)p.r(A)p.r(G)p.r(G)p.r(A)p.r(C)p.r(C)p.r(A)p.r(C)p.r(C)p.r(G)p.r(G)p.r(A)p.r(U)p.r(T)p.r(T)}|RNA2{r(A)p.r(U)p.r(C)p.r(C)p.r(G)p.r(G)p.r(U)p.r(G)p.r(G)p.r(U)p.r(C)p.r(C)p.r(U)p.m(U)p.r(A)p.r(A)p.r(G)p.r(G)p.r(U)p.r(T)p.r(T)}$$$RNA1{StrandType:ss}|RNA2{StrandType:as}$”: the target mRNA knockdown stood at 74%.

In turn, “RNA1{r(A)p.r(G)p.[fl2r](U)p.r(A)p.r(A)p.[fl2r](U)p.[fl2r](C)p.[fl2r](C)p.r(G)p.r(G)p.r(A)p.[fl2r](C)p.[fl2r](U)p.[fl2r](C)p.r(A)p.r(A)p.[fl2r](C)p.[fl2r](U)p.[fl2r](C)p.r(T)p.r(T)}|RNA2{r(G)p.r(A)p.r(G)p.r(U)p.r(U)p.r(G)p.r(A)p.r(G)p.r(U)p.r(C)p.r(C)p.r(G)p.r(G)p.r(A)p.r(U)p.r(U)p.r(A)p.r(C)p.r(U)p.r(T)p.r(T)}$$$RNA1{StrandType:ss}|RNA2{StrandType:as}$” registered a target mRNA knockdown of 59%.

Substance “RNA1{r(G)p.r(G)p.r(C)p.m(C)p.r(A)p.r(A)p.r(A)p.r(G)p.m(U)p.r(A)p.r(A)p.r(U)p.r(C)p.r(G)p.m(U)p.r(G)p.r(G)p.r(U)p.r(U)p.r(T)p.r(T)}|RNA2{r(A)p.r(A)p.r(C)p.m(C)p.r(A)p.r(C)p.r(G)p.r(A)p.r(U)p.m(U)p.r(A)p.r(C)p.r(U)p.r(U)p.m(U)p.r(G)p.r(G)p.r(C)p.r(C)p.r(T)p.r(T)}$$$RNA1{StrandType:ss}|RNA2{StrandType:as}$” gave a target mRNA knockdown of 86%.
